Results on 2 molecules are retold here after patent publication US10072304B2, “Nuclear localization of Src-family tyrosine kinases is required for growth factor-induced euchromatinization” (National University Corporation Chiba University, priority 2009, dated 2018).

This assay concerns COS-1 cells. Kind of assay: Quantitation of chromatin condensation levels (S.D. value of PI intensity per pixel) in COS-1 cells. The assay is classed as cell-based, monkey. Here is the method:
COS-1, HeLa cells (Japanese Collection of Research Bioresources, Osaka), MCF-7 (provided by H. Saya), A431 (provided by M. N. Fukuda), HEK293 (provided by […]), HCT116 (provided by T. Tomonaga), and SYF ([37]; provided by M. Okada and S. Nada) cells were cultured in Iscove's modified DME containing 5% fetal bovine serum (FBS). Cells were transiently transfected with 0.5 μg of plasmid vector using Trans IT Transfection reagent (Mirus) or with 1 μg of plasmid vector using linear polyethylenimine (25 kDa) (Polyscience, Inc.). For growth factor stimulation, COS-1 cells were starved under low serum conditions (0.05% FBS) for 24 h and restimulated with serum (5% FBS). For stimulation of endogenous SFKs, cells were treated with 3 mM Na3VO4 for 3 h, and SFK-mediated tyrosine phosphorylation was verified by treatment with 10 μM PP2 (SFK inhibitor; Calbiochem) or 100 nM wortmannin (PI3K inhibitor; Alomone Labs) for 21 h before Na3VO4 treatment. Na3VO4 was dissolved at 500 mM in 500 mM unbuffered HEPES before use. For preparation of stable transfectant clones, SYF cells transfected with c-Src-wt or Lyn-wt were selected in 333 μg/mL Zeocin (Invitrogen), and COS-1 cells were transfected with the BOSH2BGFP-N1 vector, which encodes GFP-tagged histone H2B ([39,40]; provided by H. Saya), were selected in 3 μg/mL blasticidin. Confocal and Nomarski differential-interference-contrast images were obtained using a Fluoview FV500 confocal laser scanning microscope with a 40×1.00 NA oil and a 100×1.35 NA oil immersion objective (Olympus, Tokyo) and an LSM 510 confocal laser scanning microscope with a 63×1.40 NA oil immersion objective (Zeiss), as described. One planar (xy) section slice (0.6-μm thickness) is shown in all experiments. In brief, cells were fixed with 4% paraformaldehyde for 20 min, and permeabilized in phosphate-buffered saline (PBS) containing 0.1% saponin and 3% bovine serum albumin at room temperature. Cells were subsequently reacted with an appropriate primary antibody for 1 h, washed with PBS containing 0.1% saponin, stained with FITC- or TRITC-conjugated secondary antibody for 1 h. […] To ensure no bleed-through from the fluorescein signal into the red channel, fluorescein and rhodamine were independently excited at 488 nm and 543 nm, respectively. PI was excited at 488 or 543 nm. Emission signals were detected between 505 and 525 nm for fluorescein, at more than 560 nm for rhodamine and more than 610 nm for PI [44]. Composite figures were prepared using Photoshop 5.0 and Illustrator 9.0 software (Adobe). For nuclear staining with anti-pTyr, anti-ATF-2 […]/71, and anti-histone H3K4me3 antibodies, cells were in situ extracted with 0.5% Triton X-100 at 4° C. for 3 min before fixation with 4% paraformaldehyde. For HP1α staining, cells were fixed in 100% methanol at -20° C. for 10 min followed by permeabilization for 30 min in PBS containing 0.1% Triton X-100 at room temperature. Cells were reacted with anti-HP1α antibody for 1 h at room temperature, washed with PBS four times, and stained with secondary antibody for 1 h. Fluorescence intensity plots of anti-histone H3K4me3, anti-ATF-2 […]/71 and anti-HP1α antibody and PI staining (see FIGS. 18B, 19B, and 20B, respectively) were generated using Fluoview version 4.3 software (Olympus, Tokyo). For detection of the kinase activity of nuclear SFKs, purified nuclei suspended in kinase buffer (50 mM HEPES-NaOH, pH7.4, 5 mM MgCl2, 5 mM MnCl2 and 0.1 mM Na3VO4) were preincubated with or without 10 μM PP2 at 30° C. for 30 min, and subsequently incubated with 5 or 10 μM ATP at 30° C. for 30 min, followed by cytocentrifugation at 200×g for 5 min and fixation with 4% paraformaldehyde. DNA was stained with 20 μg/mL PI and 200 μg/mL RNase A for 30 min. Mean fluorescence intensity of tyrosine-phosphorylated proteins in the nucleus was measured using the ImageJ software (National Institutes of Health). Confocal images of PI-stained nuclei were obtained as described above. […]

On to `[Na+].[Na+].[Na+].[O]=[V]([O-])([O-])[O-]` [Na3VO4, sodium orthovanadate], for which the “hypo- and hypercondensed chromatin states” value (COS-1, 3 mM Na3VO4 for 3 h, FIGS. 23 and 26) is given as “induced drastic changes”.
As for `CC(C)(C)n1nc(-c2ccc(Cl)cc2)c2c(N)ncnc21` [PP2], under “COS-1, 10 μM PP2 or 100 nM wortmannin for 24 h, FIGS. 22 and 26”, the “basal levels of chromatin condensation” value was “significantly reduce”. Also, the “chromatin hypo- and hypercondensation in Na3VO4-treated cells” value (COS-1, 10 μM PP2 pretreatment 21 h, then 3 mM Na3VO4 3 h, FIGS. 23 and 26) is “decrease”. The “serum-stimulated chromatin hypo- and hypercondensation” value (COS-1 starved 24 h (0.05% FBS), stimulated with 5% FBS in presence of 10 μM PP2, FIG. 16) is on record as “significantly inhibited”. The “hyperosmotic stress-induced chromatin structural changes” value (cells not specified, hyperosmolar conditions, data not shown) is on record as “did not inhibit”.
